According to ChEMBL document CHEMBL3608278 (J Med Chem, 2015):
Bridge positions count the residues as written; N and C are the ends. Square brackets hold non-standard residues; d marks the D form. Peptide text beside a SMILES is read from it. 1Nal = N[C@@H](Cc1cccc2ccccc12)C(=O)O

Columns and labels:
[1] = molecular target: T1, Potassium voltage-gated channel subfamily A member 3 (Homo sapiens, UniProt P22001); set-up: species or system Blood
[2] = molecular target: T1, Potassium voltage-gated channel subfamily A member 3; assay type: cell-based, CHO-K1
[3] = molecular target: T1, Potassium voltage-gated channel subfamily A member 3; assay: cell-based; set-up: species or system Blood

T1 sequence (P22001 whole entry): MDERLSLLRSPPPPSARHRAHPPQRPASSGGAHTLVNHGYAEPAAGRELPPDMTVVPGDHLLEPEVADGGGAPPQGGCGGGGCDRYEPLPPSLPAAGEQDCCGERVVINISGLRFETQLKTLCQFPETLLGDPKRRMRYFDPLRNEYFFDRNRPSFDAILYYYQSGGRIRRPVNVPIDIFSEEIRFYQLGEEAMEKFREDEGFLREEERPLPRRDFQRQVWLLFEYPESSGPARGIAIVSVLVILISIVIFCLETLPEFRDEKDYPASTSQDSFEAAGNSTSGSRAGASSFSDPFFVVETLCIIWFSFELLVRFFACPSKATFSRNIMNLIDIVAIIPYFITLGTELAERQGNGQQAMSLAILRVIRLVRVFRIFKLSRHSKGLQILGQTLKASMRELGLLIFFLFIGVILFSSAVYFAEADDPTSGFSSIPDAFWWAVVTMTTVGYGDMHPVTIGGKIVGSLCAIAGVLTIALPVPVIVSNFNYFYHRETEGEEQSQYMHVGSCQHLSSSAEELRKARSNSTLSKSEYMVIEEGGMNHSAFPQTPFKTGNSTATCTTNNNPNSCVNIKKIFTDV

How did the IC50 [1] turn out when `CC[C@H](C)[C@@H]1NC(=O)[C@@H](NC(=O)[C@H](CO)NC(=O)[C@@H](N)CCCNC(=N)N)CSSC[C@@H](C(=O)O)NC(=O)[C@H]([C@@H](C)O)NC(=O)CNC(=O)[C@@H]2CSSC[C@@H]3NC(=O)[C@H](CCC(N)=O)NC(=O)[C@H](Cc4ccccc4)NC(=O)[C@H](C)NC(=O)[C@H](CCCCN)NC(=O)[C@H](CSSC[C@H](NC(=O)[C@H](Cc4ccccc4)NC(=O)[C@H](CO)NC(=O)[C@H](CC(C)C)NC(=O)[C@H](CCCNC(=N)N)NC(=O)[C@H](Cc4ccc(O)cc4)NC(=O)[C@H](CCCCN)NC(=O)[C@H](CCSC)NC(=O)[C@H](CO)NC(=O)[C@H](Cc4cnc[nH]4)NC(=O)[C@H](CCCCN)NC3=O)C(=O)N[C@@H](CCCNC(=N)N)C(=O)N[C@@H](CCCCN)C(=O)N[C@@H]([C@@H](C)O)C(=O)N2)NC(=O)[C@H](CCCNC(=N)N)NC(=O)[C@H](CO)NC(=O)[C@H](CCCCN)NC(=O)[C@@H]2CCCN2C(=O)[C@H]([C@@H](C)CC)NC(=O)[C@H]([C@@H](C)O)NC(=O)[C@H](CC(=O)O)NC1=O` was run?
The IC50 was 0.363 nM.

What about the IC50 [2] of the same molecule?
The IC50 was 0.154 nM.

And the IC50 [3]?
Its IC50 is 0.257 nM.

For `CC[C@H](C)[C@@H]1NC(=O)[C@@H](NC(=O)[C@H](CO)NC(=O)[C@@H](N)CCCNC(=N)N)CSSC[C@@H](C(=O)O)NC(=O)[C@H](CCCCN)NC(=O)CNC(=O)[C@@H]2CSSC[C@@H]3NC(=O)[C@H](CCC(N)=O)NC(=O)[C@H](Cc4ccccc4)NC(=O)[C@H](C)NC(=O)[C@H]([C@@H](C)O)NC(=O)[C@H](CSSC[C@H](NC(=O)[C@H](Cc4ccccc4)NC(=O)[C@H](CO)NC(=O)[C@H](CC(C)C)NC(=O)[C@H](CCCNC(=N)N)NC(=O)[C@H](Cc4ccc(O)cc4)NC(=O)[C@H](CCCCN)NC(=O)[C@H](CCSC)NC(=O)[C@H](CO)NC(=O)[C@H](Cc4cnc[nH]4)NC(=O)[C@H](CCCCN)NC3=O)C(=O)N[C@@H](CCCNC(=N)N)C(=O)N[C@@H](CCCCN)C(=O)N[C@@H]([C@@H](C)O)C(=O)N2)NC(=O)[C@H](CCCNC(=N)N)NC(=O)[C@H](CO)NC(=O)[C@H](CCCCN)NC(=O)[C@@H]2CCCN2C(=O)[C@H]([C@@H](C)CC)NC(=O)[C@H]([C@@H](C)O)NC(=O)[C@H](CC(=O)O)NC1=O`, which IC50 [1] is on record?
Its IC50 is 0.136 nM.

What about the IC50 [2] of the same molecule?
Its IC50 is 0.153 nM.

And the IC50 [3]?
The IC50 was 0.067 nM.

With `CC[C@H](C)[C@@H]1NC(=O)[C@@H](NC(=O)[C@H](CO)NC(=O)[C@@H](N)CCCNC(=N)N)CSSC[C@@H](C(=O)O)NC(=O)[C@H]([C@@H](C)O)NC(=O)CNC(=O)[C@@H]2CSSC[C@@H]3NC(=O)[C@H](CCC(N)=O)NC(=O)[C@H](Cc4ccccc4)NC(=O)[C@H](C)NC(=O)[C@H]([C@@H](C)O)NC(=O)[C@H](CSSC[C@H](NC(=O)[C@H](Cc4ccccc4)NC(=O)[C@H](CCCCN)NC(=O)[C@H](CC(C)C)NC(=O)[C@H](CCCNC(=N)N)NC(=O)[C@H](Cc4ccc(O)cc4)NC(=O)[C@H](CCCCN)NC(=O)[C@H](CCSC)NC(=O)[C@H](CO)NC(=O)[C@H](Cc4cnc[nH]4)NC(=O)[C@H](CCCCN)NC3=O)C(=O)N[C@@H](CCCNC(=N)N)C(=O)N[C@@H](CCCCN)C(=O)N[C@@H]([C@@H](C)O)C(=O)N2)NC(=O)[C@H](CCCNC(=N)N)NC(=O)[C@H](CO)NC(=O)[C@H](CCCCN)NC(=O)[C@@H]2CCCN2C(=O)[C@H]([C@@H](C)CC)NC(=O)[C@H]([C@@H](C)O)NC(=O)[C@H](CC(=O)O)NC1=O` as the molecule, how does the IC50 [1] read?
The IC50 was 0.496 nM.

And the IC50 [2]?
Its IC50 is 0.122 nM.

And the IC50 [3]?
The IC50 was 0.273 nM.

How did the IC50 [1] turn out when `CC[C@H](C)[C@@H]1NC(=O)[C@@H](NC(=O)[C@H](CO)NC(=O)[C@@H](N)CCCNC(=N)N)CSSC[C@@H](C(=O)O)NC(=O)[C@H]([C@@H](C)O)NC(=O)CNC(=O)[C@@H]2CSSC[C@@H]3NC(=O)[C@H](CCC(N)=O)NC(=O)[C@H](Cc4ccccc4)NC(=O)[C@H](C)NC(=O)[C@H]([C@@H](C)O)NC(=O)[C@H](CSSC[C@H](NC(=O)[C@H](Cc4ccccc4)NC(=O)[C@H](CO)NC(=O)[C@H](CC(C)C)NC(=O)[C@H](CCCNC(=N)N)NC(=O)[C@H](Cc4ccc(O)cc4)NC(=O)[C@H](CCCCN)NC(=O)[C@H](CCSC)NC(=O)[C@H](CO)NC(=O)[C@H](Cc4cnc[nH]4)NC(=O)[C@H](CCCCN)NC3=O)C(=O)N[C@@H](CCCNC(=N)N)C(=O)N[C@@H](CCCCN)C(=O)N[C@@H]([C@@H](C)O)C(=O)N2)NC(=O)[C@H](CCCNC(=N)N)NC(=O)[C@H](CO)NC(=O)[C@H](CCCCN)NC(=O)[C@H](CCCNC(=N)N)NC(=O)[C@H]([C@@H](C)CC)NC(=O)[C@H]([C@@H](C)O)NC(=O)[C@H](CC(=O)O)NC1=O` was run?
Its IC50 is 1.05 nM.

What about the IC50 [2] of the same molecule?
Its IC50 is 0.447 nM.

What about the IC50 [3] of the same molecule?
Its IC50 is 0.253 nM.

Which IC50 [1] does the source give for `CC[C@H](C)[C@@H]1NC(=O)[C@@H](NC(=O)[C@H](CO)NC(=O)[C@@H](N)CCCNC(=N)N)CSSC[C@@H](C(=O)O)NC(=O)[C@H]([C@@H](C)O)NC(=O)CNC(=O)[C@@H]2CSSC[C@@H]3NC(=O)[C@H](CCC(N)=O)NC(=O)[C@H](Cc4cccc5ccccc45)NC(=O)[C@H](C)NC(=O)[C@H]([C@@H](C)O)NC(=O)[C@H](CSSC[C@H](NC(=O)[C@H](Cc4ccccc4)NC(=O)[C@H](CO)NC(=O)[C@H](CC(C)C)NC(=O)[C@H](CCCNC(=N)N)NC(=O)[C@H](Cc4ccc(O)cc4)NC(=O)[C@H](CCCCN)NC(=O)[C@H](CCSC)NC(=O)[C@H](CO)NC(=O)[C@H](C)NC(=O)[C@H](CCCCN)NC3=O)C(=O)N[C@@H](CCCNC(=N)N)C(=O)N[C@@H](CCCCN)C(=O)N[C@@H]([C@@H](C)O)C(=O)N2)NC(=O)[C@H](CCCNC(=N)N)NC(=O)[C@H](CO)NC(=O)[C@H](CCCCN)NC(=O)[C@@H]2CCCN2C(=O)[C@H]([C@@H](C)CC)NC(=O)[C@H]([C@@H](C)O)NC(=O)[C@H](CC(=O)O)NC1=O` (H-RSCIDTIPKSRCTA[1Nal]QCKASMKYRLSFCRKTCGTC-OH; disulfide 3-35, 12-28, 17-32) here?
Its IC50 is 0.291 nM.

And the IC50 [2]?
The IC50 was 0.073 nM.

And the IC50 [3]?
Its IC50 is 0.184 nM.

With `CC[C@H](C)[C@@H]1NC(=O)[C@@H](NC(=O)[C@H](CO)NC(=O)[C@@H](N)CCCNC(=N)N)CSSC[C@@H](C(=O)O)NC(=O)[C@H]([C@@H](C)O)NC(=O)CNC(=O)[C@@H]2CSSC[C@@H]3NC(=O)[C@H](CCC(N)=O)NC(=O)[C@H](Cc4ccccc4)NC(=O)[C@H](C)NC(=O)[C@H]([C@@H](C)O)NC(=O)[C@H](CSSC[C@H](NC(=O)[C@H](Cc4ccccc4)NC(=O)[C@H](CO)NC(=O)[C@H](CC(C)C)NC(=O)[C@H](CCCNC(=N)N)NC(=O)[C@H](Cc4ccc(O)cc4)NC(=O)[C@H](CCCCN)NC(=O)[C@H](CCSC)NC(=O)[C@H](CO)NC(=O)[C@H](Cc4cnc[nH]4)NC(=O)[C@H](CCCCN)NC3=O)C(=O)N[C@@H](CCCNC(=N)N)C(=O)N[C@@H](CCCCN)C(=O)N[C@@H]([C@@H](C)O)C(=O)N2)NC(=O)[C@H](CCCNC(=N)N)NC(=O)[C@H](CO)NC(=O)[C@H](CCCCN)NC(=O)[C@@H]2CCCN2C(=O)[C@H](Cc2cccc3ccccc23)NC(=O)[C@H]([C@@H](C)O)NC(=O)[C@H](CC(=O)O)NC1=O` as the molecule, how does the IC50 [1] read?
Its IC50 is 18 nM.

What about the IC50 [2] of the same molecule?
The IC50 was over 3.33 nM.

And the IC50 [3]?
The IC50 was 11.6 nM.

What does the source list for `CC[C@H](C)[C@@H]1NC(=O)[C@@H](NC(=O)[C@H](CO)NC(=O)[C@@H](N)CCCNC(=N)N)CSSC[C@@H](C(=O)O)NC(=O)[C@H]([C@@H](C)O)NC(=O)CNC(=O)[C@@H]2CSSC[C@@H]3NC(=O)[C@H](CCC(N)=O)NC(=O)[C@H](Cc4ccccc4)NC(=O)[C@H](C)NC(=O)[C@H]([C@@H](C)O)NC(=O)[C@H](CSSC[C@H](NC(=O)[C@H](Cc4ccccc4)NC(=O)[C@H](CO)NC(=O)[C@H](CC(C)C)NC(=O)[C@H](CCCNC(=N)N)NC(=O)[C@H](Cc4ccc(O)cc4)NC(=O)[C@H](CCCCN)NC(=O)[C@H](CCSC)NC(=O)[C@H](CO)NC(=O)[C@H](Cc4cnc[nH]4)NC(=O)[C@H](CCCCN)NC3=O)C(=O)N[C@@H](CCCNC(=N)N)C(=O)N[C@@H](CCCCN)C(=O)N[C@@H](CCC(=O)O)C(=O)N2)NC(=O)[C@H](CCCNC(=N)N)NC(=O)[C@H](CO)NC(=O)[C@H](CCCCN)NC(=O)[C@@H]2CCCN2C(=O)[C@H]([C@@H](C)CC)NC(=O)[C@H]([C@@H](C)O)NC(=O)[C@H](CC(=O)O)NC1=O`?
IC50 [1]: 0.309 nM; IC50 [2]: 0.234 nM; IC50 [3]: 0.242 nM

`CC[C@H](C)[C@@H]1NC(=O)[C@@H](NC(=O)[C@H](CO)NC(=O)[C@@H](N)CCCCN)CSSC[C@@H](C(=O)O)NC(=O)[C@H]([C@@H](C)O)NC(=O)CNC(=O)[C@@H]2CSSC[C@@H]3NC(=O)[C@H](CCC(N)=O)NC(=O)[C@H](Cc4ccccc4)NC(=O)[C@H](C)NC(=O)[C@H]([C@@H](C)O)NC(=O)[C@H](CSSC[C@H](NC(=O)[C@H](Cc4ccccc4)NC(=O)[C@H](CO)NC(=O)[C@H](CC(C)C)NC(=O)[C@H](CCCNC(=N)N)NC(=O)[C@H](Cc4ccc(O)cc4)NC(=O)[C@H](CCCCN)NC(=O)[C@H](CCSC)NC(=O)[C@H](CO)NC(=O)[C@H](Cc4cnc[nH]4)NC(=O)[C@H](CCCCN)NC3=O)C(=O)N[C@@H](CCCNC(=N)N)C(=O)N[C@@H](CCCCN)C(=O)N[C@@H]([C@@H](C)O)C(=O)N2)NC(=O)[C@H](CCCNC(=N)N)NC(=O)[C@H](CO)NC(=O)[C@H](CCCCN)NC(=O)[C@@H]2CCCN2C(=O)[C@H]([C@@H](C)CC)NC(=O)[C@H]([C@@H](C)O)NC(=O)[C@H](CC(=O)O)NC1=O` was tested. Which IC50 [1] did it give?
Its IC50 is 0.073 nM.

What about the IC50 [2] of the same molecule?
Its IC50 is 0.154 nM.

What about the IC50 [3] of the same molecule?
The IC50 was 0.036 nM.

What does the source list for `CC[C@H](C)[C@@H]1NC(=O)[C@@H](NC(=O)[C@H](CO)NC(=O)[C@@H](N)CCCNC(=N)N)CSSC[C@@H](C(=O)O)NC(=O)[C@H]([C@@H](C)O)NC(=O)CNC(=O)[C@@H]2CSSC[C@@H]3NC(=O)[C@H](CCC(N)=O)NC(=O)[C@H](Cc4ccccc4)NC(=O)[C@H](C)NC(=O)[C@H]([C@@H](C)O)NC(=O)[C@H](CSSC[C@H](NC(=O)[C@H](Cc4ccccc4)NC(=O)[C@H](CO)NC(=O)[C@H](CCC(=O)O)NC(=O)[C@H](CCCNC(=N)N)NC(=O)[C@H](Cc4ccc(O)cc4)NC(=O)[C@H](CCCCN)NC(=O)[C@H](CCSC)NC(=O)[C@H](CO)NC(=O)[C@H](Cc4cnc[nH]4)NC(=O)[C@H](CCCCN)NC3=O)C(=O)N[C@@H](CCCNC(=N)N)C(=O)N[C@@H](CCCCN)C(=O)N[C@@H]([C@@H](C)O)C(=O)N2)NC(=O)[C@H](CCCNC(=N)N)NC(=O)[C@H](CO)NC(=O)[C@H](CCCCN)NC(=O)[C@@H]2CCCN2C(=O)[C@H]([C@@H](C)CC)NC(=O)[C@H]([C@@H](C)O)NC(=O)[C@H](CC(=O)O)NC1=O`?
IC50 [1]: 0.678 nM; IC50 [2]: 0.245 nM; IC50 [3]: 0.494 nM
